Data reported in article PMC12472302, “Discovery of a Promising Hydroxyamino-Piperidine HDAC6 Inhibitor via Integrated Virtual Screening and Experimental Validation in Multiple Myeloma” (Pharmaceuticals, 2025).
Like-named read-outs stand apart in the source and are kept apart here. Blank lines part the entries; values can stand above or below the compound they belong to.

How the values were obtained:
[1] = tested on: HDAC6; settings: cited from earlier work
[2] = tested on: HDAC6; settings: cited from earlier work; remark: listed apart in the source
[3] = biological target: T1, HDAC6 human recombinant enzyme (Homo sapiens, UniProt Q9UBN7); assay: Fluorogenic HDAC6 inhibition assay (BPS Bioscience kit); format: biochemical; settings: mean ± SD, three independent experiments
T1 sequence (Q9UBN7 1-1215): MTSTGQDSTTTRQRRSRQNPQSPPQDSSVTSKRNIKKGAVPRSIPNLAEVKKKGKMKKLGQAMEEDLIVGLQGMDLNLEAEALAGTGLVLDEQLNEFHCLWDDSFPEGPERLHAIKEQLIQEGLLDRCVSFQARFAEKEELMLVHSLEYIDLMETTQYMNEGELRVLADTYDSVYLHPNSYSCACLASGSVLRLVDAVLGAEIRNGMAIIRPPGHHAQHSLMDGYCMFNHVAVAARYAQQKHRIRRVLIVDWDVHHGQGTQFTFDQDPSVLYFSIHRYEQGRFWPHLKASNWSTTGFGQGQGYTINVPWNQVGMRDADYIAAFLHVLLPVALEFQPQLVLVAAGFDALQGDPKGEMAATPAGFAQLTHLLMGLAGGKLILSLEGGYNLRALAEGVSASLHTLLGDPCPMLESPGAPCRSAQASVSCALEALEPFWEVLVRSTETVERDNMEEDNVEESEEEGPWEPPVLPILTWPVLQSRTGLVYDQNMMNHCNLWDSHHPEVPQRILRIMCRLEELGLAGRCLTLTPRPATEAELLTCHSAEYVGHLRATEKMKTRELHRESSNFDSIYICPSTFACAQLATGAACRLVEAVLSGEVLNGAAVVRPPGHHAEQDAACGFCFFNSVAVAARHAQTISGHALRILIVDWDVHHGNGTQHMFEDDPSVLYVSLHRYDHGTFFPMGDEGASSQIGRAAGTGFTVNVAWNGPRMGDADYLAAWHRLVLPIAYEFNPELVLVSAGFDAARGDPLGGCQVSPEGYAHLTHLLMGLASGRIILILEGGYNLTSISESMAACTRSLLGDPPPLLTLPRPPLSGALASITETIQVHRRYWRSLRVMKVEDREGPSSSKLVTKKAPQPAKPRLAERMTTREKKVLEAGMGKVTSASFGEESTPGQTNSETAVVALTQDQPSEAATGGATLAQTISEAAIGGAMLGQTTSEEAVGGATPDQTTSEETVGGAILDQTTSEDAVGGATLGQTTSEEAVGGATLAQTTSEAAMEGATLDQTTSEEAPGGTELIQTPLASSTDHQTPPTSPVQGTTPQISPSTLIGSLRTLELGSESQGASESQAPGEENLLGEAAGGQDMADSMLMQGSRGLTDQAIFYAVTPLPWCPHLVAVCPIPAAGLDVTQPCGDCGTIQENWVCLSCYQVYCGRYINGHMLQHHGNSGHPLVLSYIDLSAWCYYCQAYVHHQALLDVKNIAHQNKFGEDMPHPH

[4] = tested on: AMO cells; assay: CellTiter-Glo cell viability, AMO; format: cell-based; settings: Homo sapiens, 72 h, mean ± SD
Method: (§1) The MM cell lines used in this study were: AMO, AMO-BZB, NCI-H929 and NCI-H929-BZB. AMO and AMO-BZB cells were provided by Dr. C. Driessen (University of Tubingen, Tübingen, Germany). The NCI-H929 cell line was purchased from DSMZ (Braunschweig, Germany). Bortezomib (BZB)-resistant NCI-H929 cells were selected by incubation with increasing concentrations of the drug. Human MM cell lines were cultured in RPMI-1640 medium (Corning, Turin, Italy) supplemented with 10% of heat-inactivated fetal bovine serum (FBS) (Gibco®, Life Technologies, Carlsbad, CA, USA), 100 U/mL of Penicillin and 100 µg/mL of Streptomycin (P/S) (Gibco®, Life Technologies, Carlsbad, CA, USA) and incubated at 37 °C in a 5% CO2 atmosphere. Peripheral blood mononuclear cells (PBMCs) were isolated by Ficoll-hypaque (Lonza Group, Basel, Switzerland) from healthy donors, following informed consent and Institutional Review Board (University of Catanzaro, Catanzaro, Italy) approval (institutional approval: n.266/2021). […]
(§2) Cell viability was assessed using the CellTiter-Glo (CTG) assay kit (Promega, Madison, WI, USA), as reported. […] Luminescence was measured using the GloMax-Multi Detection System (Promega, Madison, WI, USA).

[5] = tested on: AMO-BZB cells; assay: CellTiter-Glo cell viability, AMO-BZB; format: cell-based; settings: Homo sapiens; AMO-BZB (bortezomib-resistant), 72 h, mean ± SD
Method: as §1, §2

[6] = tested on: H929 cells; assay: CellTiter-Glo cell viability, H929; format: cell-based; settings: Homo sapiens, NCI-H929; H929, 72 h, mean ± SD
Method: as §1, §2

[7] = tested on: H929-BZB cells; assay: CellTiter-Glo cell viability, H929-BZB; format: cell-based; settings: Homo sapiens; H929-BZB (bortezomib-resistant), 72 h, mean ± SD
Method: as §1, §2

[8] = tested on: 293T cells; assay: CellTiter-Glo cell viability, 293T; format: cell-based; settings: 72 h
[9] = tested on: healthy peripheral blood mononuclear cells (PBMCs); assay: CellTiter-Glo cell viability, healthy PBMCs; format: cell-based; settings: 72 h
Method: as §1, §2

[10] = tested on: acetylated α-tubulin; assay: Western blot of acetylated α-tubulin in MM cell lines; format: cell-based, human; settings: AMO and AMO-BZB
Method: (§3) Total protein extracts were prepared using NP-40 Cell Lysis Buffer supplemented with Halt™ Protease Inhibitor Cocktail (Thermo Fisher Scientific, Waltham, MA, USA), as reported.
(§4) Protein samples (30 µg per lane) were resolved on 10% SDS-PAGE gels and subsequently transferred onto nitrocellulose membranes using the Trans-Blot Turbo Transfer System (Bio-Rad Laboratories, Hercules, CA, USA). Membranes were then blocked and incubated with the following primary antibodies: acetylated-α Tubulin (#sc-23950; Santa Cruz Biotechnology, Dallas, TX, USA), acetylated-histone H4 (#sc-34263; Santa Cruz Biotechnology) or histone H4 (#AB5823; abcam). GAPDH (MA5-15738; Thermo Fisher Scientific, Waltham, MA, USA) was used as loading control. Protein bands were visualized using the Clarity Western ECL Substrate (Bio-Rad Laboratories, Hercules, CA, USA), and chemiluminescence signals were quantified using the UVITEC Imaging System (Cleaver Scientific, Warwickshire, UK).

[11] = tested on: histone H4 acetylation; assay: Western blot of acetylated histone H4 in AMO cells; format: cell-based, human; settings: 72 h
Method: as §3, §4

[12] = Table S1, ref DOI 10.1039/D2RA01753A

Compound: Nc1n[nH]c(-c2cc(Cc3ccc(C(=O)NO)cc3)ccc2NC(=O)Cc2ccc3c(c2)OCO3)n1
- IC50 [1, 12]: 0.0001 µM

Compound: O=C(CCCCCCC[C@H]1C(=O)[C@H]2CCC(=O)N2Cc2ccccc21)NO
- IC50 [1]: 0.0214 µM

Compound: CN(C)c1ccc(C(=O)N2CCC(n3cc(C(=O)NCCCCCC(=O)NO)nn3)CC2)cc1
- IC50 [1]: 0.0115 µM

Compound: O=C(CCCCCNC(=O)c1cn(C2CCN(S(=O)(=O)c3ccc4ccccc4c3)CC2)nn1)NO
- IC50 [1]: 0.0086 µM

Compound: O=C(CCCCCNC(=O)c1cn(Cc2ccc(NS(=O)(=O)c3ccc(Br)cc3)cc2)nn1)NO
- IC50 [1]: 0.0084 µM

Compound: COc1ccc(-c2ncc(C(=O)NCCCCCC(=O)NO)s2)c(OC)c1
- IC50 [1]: 0.031 µM

Compound: COc1ccc(C(=O)NC2CCN(C(=O)Nc3ccc(/C=C/C(=O)NO)cc3)CC2)cc1
- IC50 [1]: 0.0123 µM

Compound: C=CCC.CC[C@@H]1NC(=O)CN(Cc2ccc(C(=O)NO)cc2)C1=O
- IC50 [1]: 0.00073 µM

Compound: O=C(NO)c1ccc(CN2CC(=O)N(Cc3ccccc3)[C@H](Cc3ccccc3)C2=O)cc1
- IC50 [1]: 0.00983 µM

Compound: O=C(NO)c1ccc(CN2C(=O)[C@@H](Cc3ccccc3)N(Cc3cccnc3)C2=O)cc1
- IC50 [1]: 0.0021 µM

Compound: O=C(NO)c1ccc(CN2c3ccccc3Sc3cccnc32)cc1
- IC50 ([1]; Table S1, ref PMID 30645113): 0.005 µM

Compound: NCc1ccc(NC(=O)N(CCCCO)Cc2ccc(C(=O)NO)cc2)cc1
- IC50 ([1]; Table S1, ref PMID 32815366): 0.0004 µM

Compound: O=C(NO)c1ccc(CN(Cc2nnnn2Cc2ccccc2)C(=O)c2ccccc2C(F)(F)F)cc1
- IC50 ([1]; Table S1, ref PMID 32803970): 0.03 µM

Compound: CCCON(Cc1ccc(C(=O)NO)cc1)C(=O)Nc1cc(C)cc(C)c1
- IC50 [1]: 0.014 µM

Compound: O=C(NO)c1ccc(CN(Cc2cccnc2)S(=O)(=O)c2cc(F)c(F)c(F)c2F)cc1
- IC50 ([1]; Table S1, ref PMID 33576627): 0.0021 µM

Compound: O=C(NO)c1ccc(COC(=O)N2CCC3(CC2)CN(Cc2ccccc2)c2ccccc23)cc1
- IC50 [1]: 0.0485 µM

Compound: CCN(CC)Cc1ccc(Cn2c(=O)c(OCc3ccc(C(=O)NO)cc3)c(-c3ccccc3)c3ccccc32)cc1
- IC50 ([1]; Table S1, ref PMID 33199154): 0.0069 µM

Compound: Nc1nc2c3ccc(Cc4ccc(C(=O)NO)cc4)cc3nc(Cc3ccc4c(c3)OCO4)n2n1
- IC50 [1, 12]: 0.0005 µM

Compound: O=C(NO)c1ccc(Cn2c(=O)n(CCc3ccccc3)c(=O)c3ccccc32)cc1
- IC50 [1]: 0.004 µM

Compound: O=C(NO)c1ccc(N2C(=O)/C(=C3\Nc4ccccc4\C3=N/O)c3ccccc32)cc1
- IC50 ([1]; Table S1, ref PMID 32916298): 0.007 µM

Compound: O=C(Cc1cccc2ccccc12)C[C@@H](Cc1ccccc1)C(=O)NO
- IC50 [1]: 0.088 µM

Compound: O=C(CCCCCCNC(=O)c1cnc(N(c2ccccc2)c2ccccc2Cl)nc1)NO [ACY-241]
- selectivity ratio [2]: ~10

- IC50 [3]: > 25 µM
Compound: CC(C)Oc1ccc(-c2csc(NC(=O)c3ncn[nH]3)n2)cc1 [Compound 9]

- IC50 [3]: 1.69 ± 0.42 µM
- IC50 [6]: 18 µM
- IC50 [7]: 30.4 µM
Compound: O=C(CCC=C1CCN(C(=O)OCc2ccccc2)CC1)NO [Compound 10, benzyl 4-[4-(hydroxyamino)-4-oxobutylidene]piperidine-1-carboxylate]
- IC50 [4]: 13.2 µM
- IC50 [5]: 48.6 µM
- effect on viability of non-transformed cells [8]: negligible effects
- effect on viability of healthy PBMCs [9]: negligible effects
- acetylated α-tubulin levels ([10]; 72 h after treatment): marked increase
- impact on histone H4 acetylation [11]: moderate

Compound: COC(=O)c1ccc2ccccc2c1OCCCCCCCC(=O)NO [ONC(=O)CCCCCCCOc1c(C(=O)OC)ccc(c12)cccc2]
- IC50 ([1]; Table S1, ref PMID 31223439): 0.095 µM

Compound: O=C(NO)c1ccc(CNc2ncnc3[nH]ccc23)cc1 [ONC(=O)c1ccc(cc1)CNc2ncnc(c23)[nH]cc3]
- IC50 [1]: 0.01 µM

Compound: ACY-1215
- acetylated α-tubulin levels ([10]; 48 h after treatment): marked increase
